34 compounds from patent US8148367B2 (Takeda Pharmaceutical Company Limited, priority 2008, dated 2012) can be followed below.

A value given as a limit tells only on which side of the number the result lay.

For the test, the target named is T1, Recombinant human renin (Homo sapiens, UniProt P00797).
T1 construct: isolate the active form (residues 67-406); made in house; host or cells: FreeStyle 293-F cells, transient expression of pcDNA3.1(+)/hREN
T1 sequence (P00797 67-406): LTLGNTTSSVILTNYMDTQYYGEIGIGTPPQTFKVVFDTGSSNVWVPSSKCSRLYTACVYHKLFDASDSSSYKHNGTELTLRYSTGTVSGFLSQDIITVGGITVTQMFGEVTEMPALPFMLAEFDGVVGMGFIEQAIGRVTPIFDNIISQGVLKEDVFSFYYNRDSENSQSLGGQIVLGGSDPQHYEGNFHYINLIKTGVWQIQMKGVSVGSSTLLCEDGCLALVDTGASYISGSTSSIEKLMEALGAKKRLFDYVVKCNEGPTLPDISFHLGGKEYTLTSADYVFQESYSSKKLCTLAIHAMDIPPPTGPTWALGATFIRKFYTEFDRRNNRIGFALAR
The test can be described thus: In vitro enzymatic activity assay of renin inhibitors (fluorescence, QXL520/HiLyteFluo488 peptide substrate). It counts as biochemical. To be noted: recombinant human renin 3 nM, 1 μM substrate, pre-incubated 10 minutes at 37° C., incubation one hour, pH 7.4, 5% DMSO; read-out: IC50 of Exemplified Compounds Against Renin.

In general, IC50 refers to the concentration at which inhibition is half-maximal.

Turning to `COCCCOc1cccc(-n2c(-c3ccccc3)c(C(=O)N3CCNCC3)n(Cc3cccc(Oc4ccccc4)c3)c2=O)c1` [Example 13, 1-(3-(3-methoxypropoxy)phenyl)-3-(3-phenoxybenzyl)-5-phenyl-4-(piperazine-1-carbonyl)-1H-imidazol-2(3H)-one], the IC50 was more than 1000 nM.

In the case of `COc1cc(-c2cc(Cn3c(C(=O)N4CCNCC4)c(-c4ccccc4)n(C4CCCCC4)c3=O)cc(-c3ccnc(OC)c3)n2)ccn1` [Example 17E, 1-Cyclohexyl-3-((2,6-di(2-methoxyl-pyridine-4-yl)pyridin-4-yl)methyl)-5-phenyl-4-(piperazine-1-carbonyl)-1H-imidazol-2(3H)-one], the IC50 was in the range of 100 to 500 nM.

For `COc1ccc(-c2cc(Cn3c(C(=O)N4CCNCC4)c(-c4ccccc4)n(C4CCCCC4)c3=O)ccn2)cn1` [Example 17F, 1-Cyclohexyl-3-((6′-methoxy-2,3′-bipyridin-4-yl)methyl)-5-phenyl-4-(piperazine-1-carbonyl)-1H-imidazol-2(3H)-one], the IC50 lay within 100 to 500 nM.

For the compound `COc1ccc(-c2cc(Cn3c(C(=O)N4CCNCC4)c(-c4ccccc4)n(C4CCCCC4)c3=O)cc(N(C)C)n2)cn1` [Example 17H, 1-cyclohexyl-3-((6-(dimethylamino)-6′-methoxy-2,3′-bipyridin-4-yl)methyl)-5-phenyl-4-(piperazine-1-carbonyl)-1H-imidazol-2(3H)-one], the IC50 fell in the range of 100 to 500 nM.

Consider `CCN(CC)c1cc(Cn2c(C(=O)N3CCNCC3)c(-c3ccccc3)n(C3CCCCC3)c2=O)cc(-c2ccc(OC)nc2)n1` [Example 17J, 1-cyclohexyl-3-((6-(diethylamino)-6′-methoxy-2,3′-bipyridin-4-yl)methyl)-5-phenyl-4-(piperazine-1-carbonyl)-1H-imidazol-2(3H)-one], for which the IC50 was in the range of 100 to 500 nM.

`O=C(c1[nH]c(=O)n(-c2ccccc2)c1-c1ccccc1)N1CCNCC1` [Example 18, 1,5-Diphenyl-4-(piperazine-1-carbonyl)-1H-imidazol-2(3H)-one]: the IC50 is more than 1000 nM.

With `O=C(c1[nH]c(=O)n(-c2ccccn2)c1-c1ccccc1)N1CCNCC1` [Example 19, 5-Phenyl-4-(piperazine-1-carbonyl)-1-(pyridin-2-yl)-1H-imidazol-2(3H)-one], the IC50 was more than 1000 nM.

Take `O=C(c1[nH]c(=O)n(-c2ccccc2)c1-c1ccccc1)N1CCNCC1CO` (stereo not shown) [Example 20, 4-(2-(Hydroxymethyl)piperazine-1-carbonyl)-1,5-diphenyl-1H-imidazol-2(3H)-one]: the IC50 is more than 1000 nM.

In the case of `O=C(c1[nH]c(=O)n(-c2ccccc2)c1-c1cccc(F)c1)N1CCNCC1` [Example 21, 5-(3-Fluorophenyl)-1-phenyl-4-(piperazine-1-carbonyl)-1H-imidazol-2(3H)-one], the IC50 is more than 1000 nM.

Take `O=C(c1[nH]c(=O)n(-c2cccc(N3CCOCC3)c2)c1-c1ccccc1)N1CCNCC1` [Example 22, 1-(3-Morpholinophenyl)-5-phenyl-4-(piperazine-1-carbonyl)-1H-imidazol-2(3H)-one]: the IC50 fell in the range of 500 to 1000 nM.

In the case of `CC(C)c1c(C(=O)N2CCNCC2)[nH]c(=O)n1-c1ccccc1` [Example 23, 5-Isopropyl-1-phenyl-4-(piperazine-1-carbonyl)-1H-imidazol-2(3H)-one], the IC50 is more than 1000 nM.

In the case of `O=C(c1[nH]c(=O)n(-c2ccccc2)c1C1CC1)N1CCNCC1` [Example 24, 5-Cyclopropyl-1-phenyl-4-(piperazine-1-carbonyl)-1H-imidazol-2(3H)-one], the concentration for half-maximal inhibition (IC50) was more than 1000 nM.

As for `O=C(c1[nH]c(=O)n(-c2ccccc2)c1CC1CC1)N1CCNCC1` [Example 25, 5-(Cyclopropylmethyl)-1-phenyl-4-(piperazine-1-carbonyl)-1H-imidazol-2(3H)-one], the IC50 was more than 1000 nM.

In the case of `O=C(c1[nH]c(=O)n(-c2ccccc2)c1-c1ccccc1Cl)N1CCNCC1` [Example 26, 5-(2-Chlorophenyl)-1-phenyl-4-(piperazine-1-carbonyl)-1H-imidazol-2(3H)-one], the IC50 is more than 1000 nM.

Consider `COCCOc1cccc(Cn2c(C(=O)N3CCNCC3)c(-c3ccccc3)n(-c3ccccc3C)c2=O)c1` [Example 27, 1-(3-(2-methoxyethoxy)benzyl)-4-phenyl-5-(piperazine-1-carbonyl)-3-o-tolyl-1H-imidazol-2(3H)-one], for which the IC50 was in the range of 100 to 500 nM.

Turning to `O=C(c1[nH]c(=O)n(-c2ccccc2)c1-c1ccc(Cl)cc1)N1CCNCC1` [Example 28, 5-(4-Chlorophenyl)-1-phenyl-4-(piperazine-1-carbonyl)-1H-imidazol-2(3H)-one], the IC50 was more than 1000 nM.

With `O=C(c1[nH]c(=O)n(C2CCCCC2)c1-c1ccccc1)N1CCNCC1` [Example 29, 1-Cyclohexyl-5-phenyl-4-(piperazine-1-carbonyl)-1H-imidazol-2(3H)-one], the concentration for half-maximal inhibition (IC50) was in the range of 500 to 1000 nM.

For `COCCOc1ccccc1-n1c(-c2ccccc2)c(C(=O)N2CCNCC2)[nH]c1=O` [Example 32, 1-(2-(2-Methoxyethoxy)phenyl)-5-phenyl-4-(piperazine-1-carbonyl)-1H-imidazol-2(3H)-one], the IC50 was more than 1000 nM.

`COCCCOc1ccccc1-n1c(-c2ccccc2)c(C(=O)N2CCNCC2)[nH]c1=O` [Example 33, 1-(2-(3-Methoxypropoxy)phenyl)-5-phenyl-4-(piperazine-1-carbonyl)-1H-imidazol-2(3H)-one]: the IC50 was more than 1000 nM.

As to `COCCOc1cccc(-n2c(-c3ccccc3)c(C(=O)N3CCNCC3)[nH]c2=O)c1` [Example 34, 1-(3-(2-Methoxyethoxy)phenyl)-5-phenyl-4-(piperazine-1-carbonyl)-1H-imidazol-2(3H)-one], the IC50 is more than 1000 nM.

`COCCCOc1cccc(-n2c(-c3ccccc3)c(C(=O)N3CCNCC3)[nH]c2=O)c1` [Example 35, 1-(3-(3-Methoxypropoxy)phenyl)-5-phenyl-4-(piperazine-1-carbonyl)-1H-imidazol-2(3H)-one]: the IC50 lay in the range of 500 to 1000 nM.

Regarding `COCCCOc1cccc(-n2c(-c3ccccc3)c(C(=O)N3CCNCC3)[nH]c2=O)n1` [Example 36, 1-(6-(3-Methoxypropoxy)pyridin-2-yl)-5-phenyl-4-(piperazine-1-carbonyl)-1H-imidazol-2(3H)-one], the IC50 is more than 1000 nM.

As for `C[C@@H]1CN(C(=O)c2[nH]c(=O)n(C3CCCCC3)c2-c2ccccc2)CCN1` [Example 37, (R)-1-Cyclohexyl-4-(3-methylpiperazine-1-carbonyl)-5-phenyl-1H-imidazol-2(3H)-one], the IC50 is more than 1000 nM.

`CC1CN(C(=O)c2[nH]c(=O)n(C3CCCCC3)c2-c2ccccc2)CCN1` (stereo not shown) [Example 38, 1-Cyclohexyl-4-(3-methylpiperazine-1-carbonyl)-5-phenyl-1H-imidazol-2(3H)-one]: the IC50 was more than 1000 nM.

With `C[C@H]1CN(C(=O)c2[nH]c(=O)n(C3CCCCC3)c2-c2ccccc2)CCN1` [Example 39, (S)-1-Cyclohexyl-4-(3-methylpiperazine-1-carbonyl)-5-phenyl-1H-imidazol-2(3H)-one], the IC50 was more than 1000 nM.

Regarding `CC1CN(C(=O)c2[nH]c(=O)n(C3CCCCC3)c2-c2ccccc2)CC(C)N1` (stereo not shown) [Example 40, 1-Cyclohexyl-4-(3,5-dimethylpiperazine-1-carbonyl)-5-phenyl-1H-imidazol-2(3H)-one], the half-maximal inhibitory concentration (IC50) was more than 1000 nM.

As to `CC1CN(C(=O)c2[nH]c(=O)n(C3CCCCC3)c2-c2ccccc2)C(C)CN1` (stereo not shown) [Example 41, 1-Cyclohexyl-4-(2,5-dimethylpiperazine-1-carbonyl)-5-phenyl-1H-imidazol-2(3H)-one], the IC50 was more than 1000 nM.

Regarding `COCCCOc1cccc(-n2c(-c3cccc(Cl)c3)c(C(=O)N3CCNCC3)[nH]c2=O)c1` [Example 42, 5-(3-Chlorophenyl)-1-(3-(3-methoxypropoxy)phenyl)-4-(piperazine-1-carbonyl)-1H-imidazol-2(3H)-one], the IC50 was more than 1000 nM.

In the case of `COCCOc1cccc(-n2c(-c3cccc(Cl)c3)c(C(=O)N3CCNCC3)[nH]c2=O)c1` [Example 43, 5-(3-Chlorophenyl)-1-(3-(2-methoxyethoxy)phenyl)-4-(piperazine-1-carbonyl)-1H-imidazol-2(3H)-one], the IC50 was more than 1000 nM.

Turning to `O=C(c1[nH]c(=O)n(-c2nc3ccccc3[nH]2)c1-c1ccccc1)N1CCNCC1` [Example 44, 1-(1H-benzo[d]imidazol-2-yl)-5-phenyl-4-(piperazine-1-carbonyl)-1H-imidazol-2(3H)-one], the IC50 was more than 1000 nM.

In the case of `O=C(c1c(-c2ccccc2)n(-c2ccccc2)c(=O)n1Cc1ccccc1)N1CCNCC1` [Example 45, 1-Benzyl-3,4-diphenyl-5-(piperazine-1-carbonyl)-1H-imidazol-2(3H)-one], the IC50 was in the range of 100 to 500 nM.

For the compound `O=C(c1c(-c2ccccc2)n(-c2ccccn2)c(=O)n1Cc1ccccc1)N1CCNCC1` [Example 46, 1-Benzyl-4-phenyl-5-(piperazine-1-carbonyl)-3-(pyridin-2-yl)-1H-imidazol-2(3H)-one], the IC50 is more than 1000 nM.

With `Cc1cc(Cn2c(C(=O)N3CCNCC3)c(-c3ccccc3)n(-c3ccccc3)c2=O)no1` [Example 47, 1-((5-Methylisoxazol-3-yl)methyl)-3,4-diphenyl-5-(piperazine-1-carbonyl)-1H-imidazol-2(3H)-one], the IC50 was more than 1000 nM.

Consider `O=C(c1c(-c2ccccc2)n(-c2ccccc2)c(=O)n1Cc1nnc(C2CC2)s1)N1CCNCC1` [Example 48, 1-((5-Cyclopropyl-1,3,4-thiadiazol-2-yl)methyl)-3,4-diphenyl-5-(piperazine-1-carbonyl)-1H-imidazol-2(3H)-one], for which the IC50 was more than 1000 nM.
